Laboratory results: patent US20180042918A1, “RESPIRATORY INFECTION TREATING AGENT” (KYORIN PHARMACEUTICAL CO., LTD., priority 2015, published 2018)
In brackets after ≈: the same amount, converted by molar mass. Marks after values point to notes of the source that are not given here.

Key:
[1] = system: E. coli ATCC25922; assay: microbe, parasite or virus in culture; format: cell-based; conditions: Escherichia coli
[2] = system: E. coli ATCC25922; assay: Frequency of development of resistant bacteria; format: cell-based, Escherichia coli; conditions: for FREQUENCY OF DEVELOPMENT OF RESISTANT BACTERIA (AVERAGE OF TWO MEASURED VALUES): about 70 hours
Procedure: (§1) S. aureus ATCC29213 is Staphylococcus aureus, S. pneumoniae ATCC49619 is Streptococcus pneumoniae, and E. coli ATCC25922 is Escherichia coli. […]
(§2) The frequency of development of resistant bacteria was calculated by dividing the number of colonies developed on an agar medium having each drug concentration by the number of initially inoculated bacteria.

[3] = system: S. aureus ATCC29213; assay: Frequency of development of resistant bacteria; format: cell-based, Staphylococcus aureus; conditions: for FREQUENCY OF DEVELOPMENT OF RESISTANT BACTERIA (AVERAGE OF TWO MEASURED VALUES): about 70 hours
Procedure: as §1, §2

[4] = system: S. pneumoniae ATCC49619; assay: Frequency of development of resistant bacteria; format: cell-based, Streptococcus pneumoniae; conditions: for FREQUENCY OF DEVELOPMENT OF RESISTANT BACTERIA (AVERAGE OF TWO MEASURED VALUES): about 70 hours
Procedure: as §1, §2

[5] = rat, 1.0 hour after oral administration; cited from earlier work

SMILES | MIC [1] [ng/mL] | development of resistant bacteria (in words) ([2]; E. coli ATCC25922, 4 to 16 × MIC) | FREQUENCY OF DEVELOPMENT OF RESISTANT BACTERIA (AVERAGE OF TWO MEASURED VALUES) ([2]; E. coli ATCC25922, 4 × MIC) | FREQUENCY OF DEVELOPMENT OF RESISTANT BACTERIA (AVERAGE OF TWO MEASURED VALUES) ([2]; E. coli ATCC25922, 8 × MIC) | FREQUENCY OF DEVELOPMENT OF RESISTANT BACTERIA (AVERAGE OF TWO MEASURED VALUES) ([2]; E. coli ATCC25922, 16 × MIC) | development of resistant bacteria (in words) ([3]; S. aureus ATCC29213, 4 to 16 × MIC) | FREQUENCY OF DEVELOPMENT OF RESISTANT BACTERIA (AVERAGE OF TWO MEASURED VALUES) ([3]; S. aureus ATCC29213, 4 × MIC) | FREQUENCY OF DEVELOPMENT OF RESISTANT BACTERIA (AVERAGE OF TWO MEASURED VALUES) ([3]; S. aureus ATCC29213, 8 × MIC) | FREQUENCY OF DEVELOPMENT OF RESISTANT BACTERIA (AVERAGE OF TWO MEASURED VALUES) ([3]; S. aureus ATCC29213, 16 × MIC) | development of resistant bacteria (in words) ([4]; S. pneumoniae ATCC49619, 4 to 16 × MIC) | FREQUENCY OF DEVELOPMENT OF RESISTANT BACTERIA (AVERAGE OF TWO MEASURED VALUES) ([4]; S. pneumoniae ATCC49619, 4 × MIC) | FREQUENCY OF DEVELOPMENT OF RESISTANT BACTERIA (AVERAGE OF TWO MEASURED VALUES) ([4]; S. pneumoniae ATCC49619, 8 × MIC) | FREQUENCY OF DEVELOPMENT OF RESISTANT BACTERIA (AVERAGE OF TWO MEASURED VALUES) ([4]; S. pneumoniae ATCC49619, 16 × MIC) | tissue distribution ratio into the lung tissue [5]
O=C(O)c1cn(C2CC2)c2cc(N3CCNCC3)c(F)cc2c1=O [CPFX, ciprofloxacin] | 8 (≈ 0.0241 µM) | developed | 1.2 × 10^−8* | <1.9 × 10^−9 | <1.9 × 10^−9 | developed | 6.2 × 10^−9* | 3.1 × 10^−9* | <2.1 × 10^−9 | developed | 1.1 × 10^−8* | <1.1 × 10^−8 | <1.1 × 10^−8 | –
CC1COc2c(N3CCN(C)CC3)c(F)cc3c(=O)c(C(=O)O)cn1c23 (centres unmarked) [ofloxacin] | – | – | – | – | – | – | – | – | – | – | – | – | – | 2.7
